Assay results taken from EP4674965A1, “SIRNA TARGETING INHIBIN ?E, SIRNA CONJUGATE, AND MEDICAL USE THEREOF” (Tuojie Biotech (Shanghai) Co., Ltd., priority 2023, dated 2024).

How the values were obtained:
monkey INHBE = experiment: Multi-concentration-point inhibitory activity against INHBE in primary monkey hepatocytes (PCHs), qPCR; format: cell-based; settings: 24 h; for IC50: PCH, monkey INHBE mRNA
Text: (§1) After the Q-PCR assay was completed, the corresponding Ct values were obtained based on the threshold automatically set by the system. The expression of a certain gene can be relatively quantified by comparing the Ct values. Comparing Ct refers to calculating the differences in gene expression by the differences from the Ct value of the internal reference gene, which is also referred to as 2-ΔΔCt, where ΔΔCt = [(Ct target gene in experimental group - Ct internal reference in experimental group) - (Ct target gene in control group - Ct internal reference in control group)]. Inhibition rate (%) = (1 - remaining level of target gene expression) × 100%.
(§2) The results are expressed relative to the remaining percentage of human INHBE mRNA expression in cells treated with the siRNA. The IC50 value corresponds to the concentration of the siRNA used when the remaining percentage of INHBE mRNA expression is 50%.
(§3) 24 h prior to transfection, PCH cells were seeded into a 96-well plate at about 30,000 cells/well, with each well containing 100 µL of a culture medium. The cells were transfected with the samples using Lipofectamine RNAi MAX (ThermoFisher, 13778150) following the instruction manual of the product, with the final concentration gradients of the samples for transfection being 20 nM, 4 nM, 0.8 nM, 0.16 nM, 0.032 nM, 0.0064 nM, and 0.00128 nM. After 24 h of treatment, total cellular RNA extraction was performed using a high-throughput cellular RNA extraction kit (FG0417-L/FG0418-XL, magnetic bead method), followed by an RNA reverse transcription experiment (Takara, RR037A) and a quantitative real-time PCR (Thermo, 4444557) assay. The mRNA level of monkey INHBE was determined and calibrated on the basis of the GAPDH internal reference gene level.
In the real-time quantitative PCR assay, a probe Q-PCR assay was used. Table 15. Taqman primer information
The result analysis method and calculation method for the remaining percentage of the target mRNA expression were the same as those in Example 4.

human INHBE = experiment: Multi-concentration-point inhibitory activity against INHBE in human hepatoma cell line (Huh7), qPCR; format: cell-based; settings: for Remaining percentage of target gene mRNA expression (Huh7) (mean, %): Huh7, 24 h; for IC50: Huh7, INHBE mRNA, 24 h
Text: as §1, §2
as §3, with “Huh7” for “PCH”, “15,000” for “30,000”, “human” for “monkey”
The instruments, primer information, and result analysis method involved in this experiment were used with reference to Example 4.

| Substance | Remaining percentage of target gene mRNA expression (PCH) (mean, %) (monkey INHBE; 0.00128 (nM per method)) | Remaining percentage of target gene mRNA expression (PCH) (mean, %) (monkey INHBE; 0.0064 (nM per method)) | Remaining percentage of target gene mRNA expression (PCH) (mean, %) (monkey INHBE; 0.032 (nM per method)) | Remaining percentage of target gene mRNA expression (PCH) (mean, %) (monkey INHBE; 0.16 (nM per method)) | Remaining percentage of target gene mRNA expression (PCH) (mean, %) (monkey INHBE; 0.8 (nM per method)) | Remaining percentage of target gene mRNA expression (PCH) (mean, %) (monkey INHBE; 4 (nM per method)) | Remaining percentage of target gene mRNA expression (PCH) (mean, %) (monkey INHBE; 20 (nM per method)) | IC50 (monkey INHBE) | Remaining percentage of target gene mRNA expression (Huh7) (mean, %) (human INHBE; 0.00128 (nM per method)) | Remaining percentage of target gene mRNA expression (Huh7) (mean, %) (human INHBE; 0.0064 (nM per method)) | Remaining percentage of target gene mRNA expression (Huh7) (mean, %) (human INHBE; 0.032 (nM per method)) | Remaining percentage of target gene mRNA expression (Huh7) (mean, %) (human INHBE; 0.16 (nM per method)) | Remaining percentage of target gene mRNA expression (Huh7) (mean, %) (human INHBE; 0.8 (nM per method)) | Remaining percentage of target gene mRNA expression (Huh7) (mean, %) (human INHBE; 4 (nM per method)) | Remaining percentage of target gene mRNA expression (Huh7) (mean, %) (human INHBE; 20 (nM per method)) | IC50 (human INHBE) |
| --- | --- | --- | --- | --- | --- | --- | --- | --- | --- | --- | --- | --- | --- | --- | --- | --- |
| TJR102154: siRNA conjugate (Tables 14, 16); SS SEQ ID NO: 243, AS SEQ ID NO: 267 (sense UCAAAGCUAUUUUCAUAAU; antisense AUUAUGAAAAUAGCUUUGACU; conjugate ligand attached, 2'-OMe/2'-F pattern not given here) | 85.05% | 96.98% | 72.01% | 50.20% | 47.38% | 51.47% | 58.66% | 0.04 nM | 103.41% | 100.81% | 91.17% | 50.85% | 32.23% | 30.29% | 20.46% | 0.176 nM |
| TJR102152: siRNA conjugate (Tables 14, 16); SS SEQ ID NO: 245, AS SEQ ID NO: 269 (sense UAAUAAUACUAACAUGUUA; antisense UAACAUGUUAGUAUUAUUAUG; conjugate ligand attached, 2'-OMe/2'-F pattern not given here) | 104.56% | 77.88% | 49.77% | 43.37% | 49.75% | 46.38% | 39.63% | 0.0302 nM | 108.45% | 109.51% | 98.76% | 76.27% | 51.25% | 37.74% | 25.82% | 0.92 nM |
